Laboratory results: patent publication US10988474B2, “Compounds acting at multiple prostaglandin receptors giving a general anti-inflammatory response” (ALLERGAN, INC., priority 2011, dated 2021)

Tests used:
Type in all cases: cell-based
[1] = target: T1, human prostanoid EP1 receptor (Homo sapiens, UniProt P34995); test: FLIPR Ca2+ signaling PG antagonist assay, EP1 stable cell line; conditions: HEK-293 EBNA cells, human recombinant EP1, no exogenous G-protein; standard agonist PGE2
T1 construct: expressed in transfected cells
T1 sequence (P34995 1-402): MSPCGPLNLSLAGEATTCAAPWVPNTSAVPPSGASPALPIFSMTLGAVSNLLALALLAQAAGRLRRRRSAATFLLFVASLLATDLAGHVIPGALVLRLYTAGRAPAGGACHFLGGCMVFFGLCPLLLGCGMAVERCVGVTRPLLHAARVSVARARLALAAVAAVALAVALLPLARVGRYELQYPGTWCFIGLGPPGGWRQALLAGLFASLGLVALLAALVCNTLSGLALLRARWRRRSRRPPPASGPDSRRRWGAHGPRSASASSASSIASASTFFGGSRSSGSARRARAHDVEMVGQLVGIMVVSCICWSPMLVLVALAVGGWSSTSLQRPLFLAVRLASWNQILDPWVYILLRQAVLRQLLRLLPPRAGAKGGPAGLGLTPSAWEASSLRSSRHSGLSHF
Procedure: (§1) The above compounds were tested for PG antagonist activity as follows using human recombinant prostanoid receptor (DP1, EP1-4, FP, IP and TP) stable cell lines: In order to measure the response of Gs and Gi coupled prostanoid receptors as a Ca^2+ signal, chimeric G protein cDNAs were used. Stable cell lines over-expressing human prostanoid DP1, EP1-4, FP, IP, and TP receptors were established as follows:
(§2) Briefly, human prostanoid DP1, EP2, and EP4 receptor cDNAs were co-transfected with chimeric Gqs cDNA containing a haemagglutanin (HA) epitope; human prostanoid EP3 receptors were co-transfected with chimeric Gqi-HA; human EP1, FP, IP, and TP receptor cDNAs were expressed with no exogenous G-proteins. Gqs and Gqi chimeric cDNAs (Molecular Devices, Sunnyvale, Calif., U.S.A.), as well as cDNAs of prostanoid receptors, were cloned into a pCEP4 vector with a hygromycin B selection marker. Transfection into HEK-293 EBNA (Epstein-Barr virus nuclear antigen) cells was achieved by the FuGENE 6 transfection Reagent (Roche Applied Science, Indianapolis, Ind., USA). Stable transfectants were selected according to hygromycin resistance. Because Gqs and Gqi contained an HA epitope, G-protein expression was detected by Western blotting analysis using anti-mouse HA monoclonal antibody and horseradish peroxidase (HRP)-conjugated secondary antibody, while functional expression of prostanoid receptors was detected by FLIPR screening (Matias et al., 2004). These stable cell lines were validated using previously published antagonists at 10 μM against serial dilutions of standard agonists by FLIPR functional assays for Ca^2+ Signaling (as described below).
(§3) Ca^2+ signaling studies were performed using a FLIPR TETRA system (Molecular Devices, Sunnyvale, Calif., USA) in the 384-format. This is a high-throughput instrument for cell-based assays to monitor Ca^2+ signaling associated with GPCRs and ion channels. Cells were seeded at a density of 5×10^4 cells/well in BioCoat poly-D-lysine coated, black wall, clear bottom 384-well plates (BD Biosciences, Franklin lakes, NJ, USA) and allowed to attach overnight in an incubator at 37° C. The cells were then washed twice with HBSS-HEPES buffer (Hanks' balanced salt solution without bicarbonate and phenol red, 20 mM HEPES, pH 7.4) using an ELx405 Select CW Microplate Washer (BioTek, Winooski, Vt., USA). After 60 min of dye-loading in the dark using the Ca^2+-sensitive dye Fluo-4AM (Invitrogen, Carlsbad, Calif., USA), at a final concentration of 2×10^−6M, the plates were washed 4 times with HBSS-HEPES buffer to remove excess dye and leaving 50 μl of buffer in each well. The plates were then placed in the FLIPR TETRA instrument and allowed to equilibrate at 37° C. Compounds were added in a 25 μl volume to each well to give final concentrations of 0.1 μM, 0.3 μM, 1 μM, 3 μM, 10 μM, and 30 μM; or 0.067 μM, 0.1 μM, 0.2 μM, 0.3 μM, 0.67 μM, and 1 μM for cells over-expressing TP receptors. After 4.5 minutes, a 7-point serial dilution of the standard agonist for the corresponding receptor, in a 25 μl volume was injected at the final concentrations from 10^−11M to 10^−5M in 10-fold serial dilution increments for cells expressing human recombinant DP1, EP1, EP2, EP3, EP4, FP, and IP receptors. The dose range for the standard agonist for human recombinant TP receptors was from 10^−12M to 10^−6M. HBSS-HEPES buffer was used as the negative control for the standard agonists. Cells were excited with LED (light emitting diode) excitation at 470-495 nm and emission was measured through an emission filter at 515-575 nm. Assay plates were read for 3.5 minutes using the FLIPR^TETRA. The peak increase in fluorescence intensity was recorded for each well. On each plate, negative controls, dose response of positive controls, and co-treatments of antagonist-agonist for each dose were in triplicates. Standard agonists were as follows: DP=BW 245C, EP1-EP4=PGE2, FP=17-phenyl-PGF2α, IP=Cicaprost, and TP=U-46619. […]

[2] = target: T2, human prostanoid EP4 receptor (Homo sapiens, UniProt P35408); test: FLIPR Ca2+ signaling PG antagonist assay, EP4 stable cell line; conditions: HEK-293 EBNA cells, human recombinant EP4 with chimeric Gqs; standard agonist PGE2
T2 construct: expressed in transfected cells
Procedure: as §1, §2, §3

[3] = target: T3, human prostanoid TP receptor (Homo sapiens, UniProt P21731); test: FLIPR Ca2+ signaling PG antagonist assay, TP stable cell line; conditions: HEK-293 EBNA cells, human recombinant TP, no exogenous G-protein; standard agonist U-46619
T3 construct: expressed in transfected cells
T3 sequence (P21731 1-343): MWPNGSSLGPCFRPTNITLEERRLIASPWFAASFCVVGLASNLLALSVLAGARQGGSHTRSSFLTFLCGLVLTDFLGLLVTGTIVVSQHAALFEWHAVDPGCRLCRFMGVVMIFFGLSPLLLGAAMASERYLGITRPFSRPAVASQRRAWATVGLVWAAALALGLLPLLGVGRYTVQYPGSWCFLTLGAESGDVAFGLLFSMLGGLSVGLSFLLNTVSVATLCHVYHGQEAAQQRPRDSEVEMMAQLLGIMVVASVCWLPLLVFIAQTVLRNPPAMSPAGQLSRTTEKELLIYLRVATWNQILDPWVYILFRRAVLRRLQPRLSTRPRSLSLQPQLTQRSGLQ
In short: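 HEK-293 EBNA stable lines; EP2 co-expressed with chimeric Gqs, EP1/IP/TP with no exogenous G protein. Fluo-4AM-loaded cells pretreated 4.5 min at 37 °C with compound (0.1–30 μM; TP 0.067–1 μM), then standard agonist (PGE2, cicaprost, U-46619) 10^−11–10^−5 M (TP 10^−12–10^−6 M); peak fluorescence read 3.5 min, nonlinear regression.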

T2 sequence (P35408 whole entry): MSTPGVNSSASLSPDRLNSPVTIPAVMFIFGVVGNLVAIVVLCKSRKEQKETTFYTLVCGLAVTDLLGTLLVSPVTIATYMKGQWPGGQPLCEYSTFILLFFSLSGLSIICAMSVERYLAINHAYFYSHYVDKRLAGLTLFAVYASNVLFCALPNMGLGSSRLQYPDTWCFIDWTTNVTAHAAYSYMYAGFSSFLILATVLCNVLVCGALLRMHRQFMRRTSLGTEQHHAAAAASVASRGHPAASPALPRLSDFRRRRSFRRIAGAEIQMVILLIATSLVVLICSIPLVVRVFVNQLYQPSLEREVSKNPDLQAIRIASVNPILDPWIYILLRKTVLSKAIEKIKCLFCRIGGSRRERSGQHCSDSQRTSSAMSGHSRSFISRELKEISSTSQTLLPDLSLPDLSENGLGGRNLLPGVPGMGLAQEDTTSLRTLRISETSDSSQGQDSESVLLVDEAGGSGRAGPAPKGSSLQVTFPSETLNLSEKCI

Row | TP (Kb, PG antagonist activity) [3] | Structure (SMILES) | Kb [1] [nM] | Kb [2] [nM] | Kb [3] [nM]
1 |  | CC(C)COc1ccc(OC(F)(F)F)cc1Cn1ccc2cc(C(=O)O)ccc21 [Example 71, 1-(2-Isobutoxy-5-Trifluoromethoxy-Benzyl)-1H-Indole-5-Carboxylic Acid] | 100 | 280 | 600
2 |  | CCC(CC)COc1ccc(Cl)cc1Cn1ncc2cc(C(=O)O)ccc21 [Example 2, 1-[5-Chloro-2-(2-Ethyl-Butoxy)-Benzyl]-1H-Indazole-5-Carboxylic ACID] | 140 | 20 | 110
3 |  | CC(C)COc1ccc(Cl)cc1Cn1ncc2c(C(=O)O)cccc21 [Example 36, 1-(5-Chloro-2-Isobutoxy-Benzyl)-1H-Indazole-4-Carboxylic Acid] | 60 | 1200 | 3
4 |  | CCC(CC)COc1ccc(Cl)cc1Cn1nc(C)c2cc(C(=O)O)cnc21 [Example 60, 1-[5-Chloro-2-(2-Ethyl-Butoxy)-Benzyl]-3-Methyl-1H-Pyrazolo[3,4-B]Pyridine-5-Carboxylic Acid] | 410 | 150 | 410
5 |  | CC(C)(C)COc1ccc(Br)cc1Cn1ncc2cc(C(=O)O)ccc21 [Example 52, 1-[5-Bromo-2-(2,2-Dimethyl-Propoxy)-Benzyl]-1H-Indazole-5-Carboxylic Acid] | 24 | 10 | 2
6 |  | O=C(O)c1ccc2c(cnn2Cc2cc(Cl)ccc2OCC2CC2)c1 [Example 11, 1-(5-Chloro-2-Cyclopropylmethoxy-Benzyl)-1H-Indazole-5-Carboxylic Acid] | 120 | 110 | 120
7 |  | O=C(O)c1ccc2c(cnn2Cc2cc(Br)ccc2OCC2CCCC2)c1 [Example 14, 1-(5-Bromo-2-Cyclopentylmethoxy-Benzyl)-1H-Indazole-5-Carboxylic Acid] | 20 | 15 | 600
8 |  | O=C(O)c1ccc2c(cnn2Cc2cc(Br)ccc2OCc2ccc(Cl)cc2)c1 [Example 13, 1-[5-Bromo-2-(4-Chloro-Benzyloxy)-Benzyl]-1H-Indazole-5-Carboxylic Acid] | 50 | 2700 | 900
9 |  | CC(C)COc1ccc(Br)cc1Cn1ncc2ccc(C(=O)O)cc21 [Example 42, 1-(5-Bromo-2-Isobutoxy-Benzyl)-1H-Indazole-6-Carboxylic Acid] | 24 | 1800 | 20
10 |  | CCC(CC)COc1ccc(Br)cc1Cn1nc(C)c2cc(C(=O)O)cnc21 [Example 59, 1-[5-Bromo-2-(2-Ethyl-Butoxy)-Benzyl]-3-Methyl-1H-Pyrazolo[3,4-B]Pyridine-5-Carboxylic Acid] | 280 | 190 | 320
11 |  | CCC(CC)COc1ccc(Cl)cc1Cn1ncc2ccc(C(=O)O)cc21 [Example 6] | ≥ 10000 | ≥ 10000 | 150
12 |  | CC(C)COc1ccc(Cl)cc1Cn1ncc2cc(C(=O)O)cnc21 [Example 57, 1-(5-Chloro-2-Isobutoxy-Benzyl)-1H-Pyrazolo[3,4-B]Pyridine-5-Carboxylic Acid] | 27 | 1300 | 150
13 |  | CC(C)COc1ccc(Br)cc1Cn1ncc2c(C(=O)O)cccc21 [Example 7, 1-(5-Bromo-2-Isobutoxy-Benzyl)-1H-Indazole-4-Carboxylic Acid] | 45 | 1800 | 20
14 |  | O=C(O)c1ccc2c(cnn2Cc2cc(Cl)ccc2OCC2CCCC2)c1 [Example 10, 1-(5-Chloro-2-Cyclopentylmethoxy-Benzyl)-1H-Indazole-5-Carboxylic Acid] | 50 | 20 | 20
15 |  | Cc1cc2cc(C(=O)O)ccc2n1Cc1cc(Br)ccc1OCC(C)C [Example 66, 1-(5-Bromo-2-Isobutoxy-Benzyl)-2-Methyl-1H-Indole-5-Carboxylic Acid] | 50 | 1400 | 320
16 |  | O=C(O)c1ccc2c(cnn2Cc2cc(Br)ccc2OCC2CC2)c1 [Example 15, 1-(5-Bromo-2-Cyclopropylmethoxy-Benzyl)-1H-Indazole-5-Carboxylic Acid] | 190 | 200 | 20
17 |  | CC(C)COc1ccc(OC(F)(F)F)cc1Cn1ccc2cc(C(=O)O)cnc21 [Example 74, 1-(2-Isobutoxy-5-Trifluoromethoxy-Benzyl)-1H-Pyrrolo[2,3-B]Pyridine-5-Carboxylic Acid] | 60 | 440 | 20
18 | Ag | O=C(O)c1cccc2c1cnn2Cc1cc(Cl)ccc1OCc1ccc(Cl)cc1 [Example 40, 1-[5-Chloro-2-(4-Chloro-Benzyloxy)-Benzyl]-1H-Indazole-4-Carboxylic Acid] | 60 | 2500 | 
19 |  | CC(C)COc1ccc(Br)cc1Cn1ccc2cc(C(=O)O)cnc21 [Example 72, 1-(5-Bromo-2-Isobutoxy-Benzyl)-1H-Pyrrolo[2,3-B]Pyridine-5-Carboxylic Acid] | 10 | 220 | 3
20 |  | CC(C)COc1ccc(Br)cc1Cn1cc2cc(C(=O)O)ccc2n1 [Example 17, 2-(5-Bromo-2-Isobutoxy-Benzyl)-2H-Indazole-5-Carboxylic Acid] | 40 | 600 | 3300
21 |  | CC(C)COc1ccc(OCC(F)F)cc1Cn1ncc2cc(C(=O)O)ccc21 [Example 55, 1-[5-(2,2-Difluoro-Ethoxy)-2-Isobutoxy-Benzyl]-1H-Indazole-5-Carboxylic Acid] | 40 | 2100 | 300
